Assay results reported in PMC5063977 (The Journal of Biological Chemistry, 2016).

Legend:
RAMP3-CLR (AM2 receptor) [1] = target: T1, RAMP3-CLR (AM2 receptor) (Homo sapiens, UniProt O60896+Q16602); experiment: cAMP accumulation, HEK-293 cells, RAMP3 + CLR; type: cell-based; conditions: mean ± S.E.
T1 construct: FLAG; expressed in transfected cells; host or cells: HEK-293 or HEK-293S cells, transient transfection, 1:1 RAMP:CLR
Method: HEK-293 cells were transfected with FuGENE 6 (Roche Applied Science) in accordance with the manufacturer's instructions using a 1:3 (w:v) DNA:FuGENE ratio and a 1:1 ratio of RAMP to CLR. […] The transfected cell lines were grown for 24–48 h prior to assaying.
The transfected HEK-293 cells were washed in PBS, resuspended in stimulation buffer (PBS containing 0.1% BSA and 0.5 mM IBMX), and seeded at 2000 cells/well in 384-well white Optiplates. Ligands were added in the range of 1 pM to 1 mM, and cAMP accumulation was measured after 30 min of stimulation using a LANCE® cAMP detection kit (PerkinElmer Life Sciences). […] Plates were read using a Mithras LB 940 multimode microplate reader (Berthold Technologies). […] Values were converted to concentration using a cAMP standard curve performed in parallel.
Data analysis for cAMP assays was performed in GraphPad Prism 6.0f (San Diego, CA). Data were fitted to obtain concentration-response curves using either the three-parameter logistic equation (for pEC50 values) or the operational model for partial agonism ([34]) to obtain values of efficacy (log τ) and the equilibrium dissociation constant (log Ka). These values were then used to quantify signaling bias as change in log (τ/Ka) relative to the natural cognate ligand for the respective receptor ([41]). […] Statistical differences were analyzed using one-way ANOVA or Student's t test as appropriate with post hoc Bonferroni's or Dunnett's multiple comparisons, and p < 0.05 was considered significant. […] For RT-PCR, normalization to the internal standard GAPDH was performed to reduce variance and enable a comparison between different cell lines. To quantitate the ligand-dependent response in the yeast system, a strain lacking GPA1 (MMY11), grown in rich medium, was used as a standard ([72]). As GPA1 is not present in this strain, the Gβγ subunits are unregulated and free to signal, allowing us to determine the maximal response of our system. […] For the mammalian cell-based assays, data analysis was carried out as for the yeast curves. […]

RAMP3-CLR (AM2 receptor) [2] = target: T1, RAMP3-CLR (AM2 receptor); experiment: (Ca^2+)i mobilization, HEK-293 cells, RAMP3 + CLR; type: cell-based; conditions: HEK293, percentage of maximal (Ca^2+)i release with 10 μM ionomycin, mean ± S.E., n = 5
Method: HEK-293 cells, provided by Dr. Jügen Müller (University of Aston), were cultured in DMEM supplemented with 10% heat-inactivated FBS and kept at 37 °C in a humidified 95% air, 5% CO2 incubator. HEK-293S cells (a gift from AstraZeneca) were cultured in DMEM supplemented with 8% heat-inactivated FBS and kept at 37 °C in a humidified 95% air, 5% CO2 incubator. HEK-293 cells were transfected with FuGENE 6 (Roche Applied Science) in accordance with the manufacturer's instructions using a 1:3 (w:v) DNA:FuGENE ratio and a 1:1 ratio of RAMP to CLR. HEK-293S cells were seeded into 96-well poly-D-lysine-coated plates at a density of 15,000 cells/well (determined using a Countess^TM cell counter, Invitrogen) 1 day prior to transfection. HEK-293S cells were transiently transfected as described previously ([38]) using a 1:1 ratio of RAMP to CLR. The transfected cell lines were grown for 24–48 h prior to assaying.
Transfected HEK-293 cells were grown to confluence in black, clear bottomed, 96-well plates. […] Ligands were added robotically using a Mithras LB 940 multimode microplate reader in the range of 10 pM to 1 μM, and fluorescence was determined immediately post-injection with an excitation wavelength set to 485 nm and an emission wavelength set to 535 nm. […] Peak magnitude was calculated using five-point smoothing followed by correction against background fluorescence. […]

T1 sequence (Q16602 23-461): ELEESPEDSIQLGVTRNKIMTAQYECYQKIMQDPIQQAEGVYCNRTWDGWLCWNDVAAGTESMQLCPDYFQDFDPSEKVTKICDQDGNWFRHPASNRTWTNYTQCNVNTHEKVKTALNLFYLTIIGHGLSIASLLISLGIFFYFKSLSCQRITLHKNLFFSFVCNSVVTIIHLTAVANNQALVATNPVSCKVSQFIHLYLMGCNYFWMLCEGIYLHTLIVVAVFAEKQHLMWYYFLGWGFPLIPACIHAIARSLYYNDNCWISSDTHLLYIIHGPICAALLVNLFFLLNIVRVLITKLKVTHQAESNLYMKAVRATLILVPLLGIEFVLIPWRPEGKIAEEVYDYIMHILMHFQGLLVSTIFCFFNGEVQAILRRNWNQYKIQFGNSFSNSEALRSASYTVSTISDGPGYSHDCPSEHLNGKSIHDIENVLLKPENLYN
T1 sequence (O60896 24-148): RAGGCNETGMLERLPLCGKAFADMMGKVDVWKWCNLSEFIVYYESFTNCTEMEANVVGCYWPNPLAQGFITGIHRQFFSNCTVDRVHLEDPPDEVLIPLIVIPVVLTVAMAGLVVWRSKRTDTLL

- Emax (RAMP3-CLR (AM2 receptor) [1]; HEK293, PTX treated (200 ng/ml, 16 h), percentage of maximal cAMP with 100 μM forskolin in presence of PTX, n = 7 (Table 3)): 36 ± 2.2%
- Emax (RAMP3-CLR (AM2 receptor) [1]; HEK293, percentage of maximal cAMP with 100 μM forskolin, HEK-293, 30 min, n = 9 (Table 2)): 32.1 ± 1.6%
- Emax (RAMP3-CLR (AM2 receptor) [1]; HEK293, untreated, percentage of maximal cAMP with 100 μM forskolin in presence of PTX, n = 8 (Table 3)): 32 ± 1.5%
- Emax (RAMP3-CLR (AM2 receptor) [2]): 56.7 ± 6.6%
Structure (SMILES): CC[C@H](C)[C@H](NC(=O)[C@H](CCC(N)=O)NC(=O)[C@H](Cc1c[nH]cn1)NC(=O)[C@H](C)NC(=O)[C@H](CC(C)C)NC(=O)[C@H](CCCCN)NC(=O)[C@H](CCC(N)=O)NC(=O)[C@@H](NC(=O)[C@@H](NC(=O)[C@@H]1CSSC[C@H](NC(=O)CNC(=O)[C@H](Cc2ccccc2)NC(=O)[C@H](CO)NC(=O)[C@H](CCCNC(=N)N)NC(=O)[C@H](CC(C)C)NC(=O)CNC(=O)[C@H](CCC(N)=O)NC(=O)[C@H](Cc2ccccc2)NC(=O)[C@H](CC(N)=O)NC(=O)[C@H](CC(N)=O)NC(=O)[C@H](CCSC)NC(=O)[C@H](CO)NC(=O)[C@H](CCC(N)=O)NC(=O)[C@H](CCCNC(=N)N)NC(=O)[C@@H](N)Cc2ccc(O)cc2)C(=O)N[C@@H](CCCNC(=N)N)C(=O)N[C@@H](Cc2ccccc2)C(=O)NCC(=O)N[C@@H]([C@@H](C)O)C(=O)N1)[C@@H](C)O)C(C)C)C(=O)N[C@@H](Cc1ccc(O)cc1)C(=O)N[C@@H](CCC(N)=O)C(=O)N[C@@H](Cc1ccccc1)C(=O)N[C@H](C(=O)N[C@@H](CC(=O)O)C(=O)N[C@@H](CCCCN)C(=O)N[C@@H](CC(=O)O)C(=O)N[C@@H](CCCCN)C(=O)N[C@@H](CC(=O)O)C(=O)N[C@@H](CC(N)=O)C(=O)N[C@H](C(=O)N[C@@H](C)C(=O)N1CCC[C@H]1C(=O)N[C@@H](CCCNC(=N)N)C(=O)N[C@@H](CO)C(=O)N[C@@H](CCCCN)C(=O)N[C@H](C(=O)N[C@@H](CO)C(=O)N1CCC[C@H]1C(=O)N[C@@H](CCC(N)=O)C(=O)NCC(=O)N[C@@H](Cc1ccc(O)cc1)C(N)=O)[C@@H](C)CC)C(C)C)[C@@H](C)O [AM, adrenomedullin]
